# Target: T1, DNA topoisomerase II (Homo sapiens, UniProt P11388+Q02880)
# Experiment: Inhibition of topoisomerase 2 in human HepG2 cells assessed as reduction in cell growth measured after 72 hrs by MTT assay
# Type: cell-based
# Conditions: not given
row,SMILES,IC50 [µM]
1,CC(C)=CC[C@@H](O)C1=CC(=O)c2c(O)ccc(O)c2C1=O [SHIKONIN],6.2
2,O=C1c2ccccc2C(=O)c2c(O)c(C(O)c3cccs3)cc(O)c21 (configuration not stated),37.9
3,O=C1c2ccccc2C(=O)c2c(O)c(C(O)c3ccsc3)cc(O)c21 (configuration not stated),> 50
4,CSc1ccc(C(c2cc(O)c3c(c2O)C(=O)c2ccccc2C3=O)N(CCCl)CCCl)cc1 (configuration not stated),20.6
5,Cc1ccc(C(O)c2cc(O)c3c(c2O)C(=O)c2ccccc2C3=O)s1 (configuration not stated),44.7
6,O=C1c2ccccc2C(=O)c2c(O)c(C(O)c3ccc(Br)s3)cc(O)c21 (configuration not stated),25.1
7,O=C1c2ccccc2C(=O)c2c(O)c(C(O)c3ccc(C(F)(F)F)cc3)cc(O)c21 (configuration not stated),14.9
8,COc1ccc(C(O)c2cc(O)c3c(c2O)C(=O)c2ccccc2C3=O)cc1OC (configuration not stated),> 50
9,CCOc1ccc(C(O)c2cc(O)c3c(c2O)C(=O)c2ccccc2C3=O)cc1 (configuration not stated),> 50
10,O=C1c2ccccc2C(=O)c2c(O)c(C(c3ccc(OC(F)(F)F)cc3)N(CCCl)CCCl)cc(O)c21 (configuration not stated),> 50
11,N#Cc1ccc(C(O)c2cc(O)c3c(c2O)C(=O)c2ccccc2C3=O)cc1 (configuration not stated),12.8

# Target: T1, DNA topoisomerase II
# Experiment: Inhibition of topoisomerase 2 in human HeLa cells assessed as reduction in cell growth measured after 72 hrs by MTT assay
# Type: cell-based
# Conditions: not given
row,SMILES,IC50 [µM]
1,CC(C)=CC[C@@H](O)C1=CC(=O)c2c(O)ccc(O)c2C1=O [SHIKONIN],6.7
2,O=C1c2ccccc2C(=O)c2c(O)c(C(O)c3cccs3)cc(O)c21 (configuration not stated),36.2
3,O=C1c2ccccc2C(=O)c2c(O)c(C(O)c3ccsc3)cc(O)c21 (configuration not stated),> 50
4,CSc1ccc(C(c2cc(O)c3c(c2O)C(=O)c2ccccc2C3=O)N(CCCl)CCCl)cc1 (configuration not stated),> 50
5,Cc1ccc(C(O)c2cc(O)c3c(c2O)C(=O)c2ccccc2C3=O)s1 (configuration not stated),42.3
6,O=C1c2ccccc2C(=O)c2c(O)c(C(O)c3ccc(Br)s3)cc(O)c21 (configuration not stated),48.1
7,O=C1c2ccccc2C(=O)c2c(O)c(C(O)c3ccc(C(F)(F)F)cc3)cc(O)c21 (configuration not stated),20.7
8,COc1ccc(C(O)c2cc(O)c3c(c2O)C(=O)c2ccccc2C3=O)cc1OC (configuration not stated),> 50
9,CCOc1ccc(C(O)c2cc(O)c3c(c2O)C(=O)c2ccccc2C3=O)cc1 (configuration not stated),> 50
10,O=C1c2ccccc2C(=O)c2c(O)c(C(c3ccc(OC(F)(F)F)cc3)N(CCCl)CCCl)cc(O)c21 (configuration not stated),> 50
11,N#Cc1ccc(C(O)c2cc(O)c3c(c2O)C(=O)c2ccccc2C3=O)cc1 (configuration not stated),14.9

# Target: T1, DNA topoisomerase II
# Experiment: Inhibition of topoisomerase 2 in human A549 cells assessed as reduction in cell growth measured after 72 hrs by MTT assay
# Type: cell-based
# Conditions: not given
row,SMILES,IC50 [µM]
1,CC(C)=CC[C@@H](O)C1=CC(=O)c2c(O)ccc(O)c2C1=O [SHIKONIN],16
2,O=C1c2ccccc2C(=O)c2c(O)c(C(O)c3cccs3)cc(O)c21 (configuration not stated),28.9
3,O=C1c2ccccc2C(=O)c2c(O)c(C(O)c3ccsc3)cc(O)c21 (configuration not stated),> 50
4,CSc1ccc(C(c2cc(O)c3c(c2O)C(=O)c2ccccc2C3=O)N(CCCl)CCCl)cc1 (configuration not stated),> 50
5,Cc1ccc(C(O)c2cc(O)c3c(c2O)C(=O)c2ccccc2C3=O)s1 (configuration not stated),35.8
6,O=C1c2ccccc2C(=O)c2c(O)c(C(O)c3ccc(Br)s3)cc(O)c21 (configuration not stated),23
7,O=C1c2ccccc2C(=O)c2c(O)c(C(O)c3ccc(C(F)(F)F)cc3)cc(O)c21 (configuration not stated),23.3
8,COc1ccc(C(O)c2cc(O)c3c(c2O)C(=O)c2ccccc2C3=O)cc1OC (configuration not stated),> 50
9,CCOc1ccc(C(O)c2cc(O)c3c(c2O)C(=O)c2ccccc2C3=O)cc1 (configuration not stated),> 50
10,O=C1c2ccccc2C(=O)c2c(O)c(C(c3ccc(OC(F)(F)F)cc3)N(CCCl)CCCl)cc(O)c21 (configuration not stated),> 50
11,N#Cc1ccc(C(O)c2cc(O)c3c(c2O)C(=O)c2ccccc2C3=O)cc1 (configuration not stated),17.6

# Target: T1, DNA topoisomerase II
# Experiment: Inhibition of topoisomerase 2 in human CNE1 cells assessed as reduction in cell growth measured after 72 hrs by MTT assay
# Type: cell-based
# Conditions: not given
row,SMILES,IC50 [µM]
1,CC(C)=CC[C@@H](O)C1=CC(=O)c2c(O)ccc(O)c2C1=O [SHIKONIN],12.5
2,O=C1c2ccccc2C(=O)c2c(O)c(C(O)c3cccs3)cc(O)c21 (configuration not stated),16.6
3,O=C1c2ccccc2C(=O)c2c(O)c(C(O)c3ccsc3)cc(O)c21 (configuration not stated),> 50
4,CSc1ccc(C(c2cc(O)c3c(c2O)C(=O)c2ccccc2C3=O)N(CCCl)CCCl)cc1 (configuration not stated),15.4
5,Cc1ccc(C(O)c2cc(O)c3c(c2O)C(=O)c2ccccc2C3=O)s1 (configuration not stated),23.6
6,O=C1c2ccccc2C(=O)c2c(O)c(C(O)c3ccc(Br)s3)cc(O)c21 (configuration not stated),14.4
7,O=C1c2ccccc2C(=O)c2c(O)c(C(O)c3ccc(C(F)(F)F)cc3)cc(O)c21 (configuration not stated),13.7
8,COc1ccc(C(O)c2cc(O)c3c(c2O)C(=O)c2ccccc2C3=O)cc1OC (configuration not stated),> 50
9,CCOc1ccc(C(O)c2cc(O)c3c(c2O)C(=O)c2ccccc2C3=O)cc1 (configuration not stated),> 50
10,O=C1c2ccccc2C(=O)c2c(O)c(C(c3ccc(OC(F)(F)F)cc3)N(CCCl)CCCl)cc(O)c21 (configuration not stated),11.3
11,N#Cc1ccc(C(O)c2cc(O)c3c(c2O)C(=O)c2ccccc2C3=O)cc1 (configuration not stated),12.6

# Target: T1, DNA topoisomerase II
# Experiment: Inhibition of topoisomerase 2 in human MCF7 cells assessed as reduction in cell growth measured after 72 hrs by MTT assay
# Type: cell-based
# Conditions: not given
row,SMILES,IC50 [µM]
1,CC(C)=CC[C@@H](O)C1=CC(=O)c2c(O)ccc(O)c2C1=O [SHIKONIN],5.7
2,O=C1c2ccccc2C(=O)c2c(O)c(C(O)c3cccs3)cc(O)c21 (configuration not stated),> 50
3,O=C1c2ccccc2C(=O)c2c(O)c(C(O)c3ccsc3)cc(O)c21 (configuration not stated),> 50
4,CSc1ccc(C(c2cc(O)c3c(c2O)C(=O)c2ccccc2C3=O)N(CCCl)CCCl)cc1 (configuration not stated),39.3
5,Cc1ccc(C(O)c2cc(O)c3c(c2O)C(=O)c2ccccc2C3=O)s1 (configuration not stated),> 50
6,O=C1c2ccccc2C(=O)c2c(O)c(C(O)c3ccc(Br)s3)cc(O)c21 (configuration not stated),39.4
7,O=C1c2ccccc2C(=O)c2c(O)c(C(O)c3ccc(C(F)(F)F)cc3)cc(O)c21 (configuration not stated),27.4
8,COc1ccc(C(O)c2cc(O)c3c(c2O)C(=O)c2ccccc2C3=O)cc1OC (configuration not stated),> 50
9,CCOc1ccc(C(O)c2cc(O)c3c(c2O)C(=O)c2ccccc2C3=O)cc1 (configuration not stated),> 50
10,O=C1c2ccccc2C(=O)c2c(O)c(C(c3ccc(OC(F)(F)F)cc3)N(CCCl)CCCl)cc(O)c21 (configuration not stated),42.8
11,N#Cc1ccc(C(O)c2cc(O)c3c(c2O)C(=O)c2ccccc2C3=O)cc1 (configuration not stated),28.6

# Target: T1, DNA topoisomerase II
# Experiment: Inhibition of topoisomerase 2 in human MDA-MB-231 cells assessed as reduction in cell growth measured after 72 hrs by MTT assay
# Type: cell-based
# Conditions: not given
row,SMILES,IC50 [µM]
1,CC(C)=CC[C@@H](O)C1=CC(=O)c2c(O)ccc(O)c2C1=O [SHIKONIN],7.8
2,O=C1c2ccccc2C(=O)c2c(O)c(C(O)c3cccs3)cc(O)c21 (configuration not stated),45
3,O=C1c2ccccc2C(=O)c2c(O)c(C(O)c3ccsc3)cc(O)c21 (configuration not stated),> 50
4,CSc1ccc(C(c2cc(O)c3c(c2O)C(=O)c2ccccc2C3=O)N(CCCl)CCCl)cc1 (configuration not stated),41.4
5,Cc1ccc(C(O)c2cc(O)c3c(c2O)C(=O)c2ccccc2C3=O)s1 (configuration not stated),> 50
6,O=C1c2ccccc2C(=O)c2c(O)c(C(O)c3ccc(Br)s3)cc(O)c21 (configuration not stated),43.9
7,O=C1c2ccccc2C(=O)c2c(O)c(C(O)c3ccc(C(F)(F)F)cc3)cc(O)c21 (configuration not stated),38.1
8,COc1ccc(C(O)c2cc(O)c3c(c2O)C(=O)c2ccccc2C3=O)cc1OC (configuration not stated),> 50
9,CCOc1ccc(C(O)c2cc(O)c3c(c2O)C(=O)c2ccccc2C3=O)cc1 (configuration not stated),> 50
10,O=C1c2ccccc2C(=O)c2c(O)c(C(c3ccc(OC(F)(F)F)cc3)N(CCCl)CCCl)cc(O)c21 (configuration not stated),34.8
11,N#Cc1ccc(C(O)c2cc(O)c3c(c2O)C(=O)c2ccccc2C3=O)cc1 (configuration not stated),26.9

# System: L02
# Experiment: Cytotoxicity against human L02 cells assessed as inhibition of cell growth measured after 72 hrs by MTT assay
# Type: cell-based
# Conditions: L02, 72 h
row,SMILES,IC50 [µM]
1,CC(C)=CC[C@@H](O)C1=CC(=O)c2c(O)ccc(O)c2C1=O [SHIKONIN],13
2,O=C1c2ccccc2C(=O)c2c(O)c(C(O)c3cccs3)cc(O)c21 (configuration not stated),> 50
3,O=C1c2ccccc2C(=O)c2c(O)c(C(O)c3ccsc3)cc(O)c21 (configuration not stated),> 50
4,CSc1ccc(C(c2cc(O)c3c(c2O)C(=O)c2ccccc2C3=O)N(CCCl)CCCl)cc1 (configuration not stated),> 50
5,Cc1ccc(C(O)c2cc(O)c3c(c2O)C(=O)c2ccccc2C3=O)s1 (configuration not stated),> 50
6,O=C1c2ccccc2C(=O)c2c(O)c(C(O)c3ccc(Br)s3)cc(O)c21 (configuration not stated),> 50
7,O=C1c2ccccc2C(=O)c2c(O)c(C(O)c3ccc(C(F)(F)F)cc3)cc(O)c21 (configuration not stated),> 50
8,COc1ccc(C(O)c2cc(O)c3c(c2O)C(=O)c2ccccc2C3=O)cc1OC (configuration not stated),> 50
9,CCOc1ccc(C(O)c2cc(O)c3c(c2O)C(=O)c2ccccc2C3=O)cc1 (configuration not stated),> 50
10,O=C1c2ccccc2C(=O)c2c(O)c(C(c3ccc(OC(F)(F)F)cc3)N(CCCl)CCCl)cc(O)c21 (configuration not stated),> 50
11,N#Cc1ccc(C(O)c2cc(O)c3c(c2O)C(=O)c2ccccc2C3=O)cc1 (configuration not stated),> 50

# — ChEMBL document CHEMBL4316614, “Design, synthesis and biological evaluation of 1,4-dihydroxyanthraquinone derivatives as anticancer agents” (Bioorg Med Chem Lett, 2019)
